This note sets out measurements from patent US20160374944A1, “COMPOSITIONS AND METHODS FOR TREATING AND PREVENTING CANCER BY TARGETING AND INHIBITING CANCER STEM CELLS” (priority 2011, published 2016).

For assay [1], the system named is TCF/LEF activity in pancreatic CSCs. As to the kind of experiment: TCF/LEF responsive reporter. It is filed as cell-based, human. On the procedure:
(A) Pancreatic CSCs were treated with EGCG (0-60 μM) for 48 h. At the end of incubation period, the expression of Snail, ZEB1 and Slug was measured by q-RT-PCR. […] (B) Transwell migration assay. Pancreatic CSCs were plated in the top chamber of the transwell and treated with EGCG (0-60 μM) for 24 h. Cells migrated to the lower chambered were fixed with methanol, stained with crystal violet and counted. […] (C) Matrigel invasion assay. CSCs were plated onto the Matrigel-coated membrane in the top chamber of the transwell and treated with EGCG (0-60 μM) for 48 h. Cells invaded to the lower chambered were fixed with methanol, stained with crystal violet and counted. […] (D) Effects of EGCG on TCF-1/LEF activity. […] Transduced CSCs were treated with EGCG (0-60) for 48 h and the GFP fluorescence was measured. […] Cell viability was measured by trypan blue assay. […] At the end of incubation period, colonies were counted. […] Cells invaded to the lower chambered were fixed with methanol, stained with crystal violet and counted. […] Cells migrated to the lower chambered were fixed with methanol, stained with crystal violet and counted. […] Apoptosis was measured by TUNEL assay. […] Transduced CSCs were treated with EGCG (40 μM) with or without quercetin (20 μM) for 48 hrs and the luciferase activity was measured.

Assay [2] deals with Pancreatic CSCs. The experiment in a line: pancreatic CSCs xenografted sub-cutaneously in NSG mice. In kind it is in vivo. The settings on record: NOD/SCID/IL2R gamma mice, 20 mg/kg, 6 weeks. As to the method:
(§1) (A) Pancreatic CSCs were orthotopically implanted in pancreas of NSG mice, and treated with or without sulforaphane 20 mg/kg, for 6 weeks, (B and C) Pancreatic CSCs were xenografted sub-cutaneously in NSG mice, and treated with or without rottlerin and embelin 20 mg/kg, for 6 weeks, (D and E) Prostate CSCs were xenografted sub-cutaneously in NSG mice, and treated with or without rottlerin and embelin 20 mg/kg, for 6 weeks. At the end of the treatment, weights of tumors in treated mice were compared with control mice.

Assay [3] has as its system Prostate CSCs. The experiment in a line: colony formation in soft agar. In kind it is cell-based, human. The settings on record: 21 days; embelin 0-6 μM, rottlerin 0-2 μM. On the procedure: (§2) In particular, embelin is shown to inhibit spheroid and colony formation, and induce caspase-3 and apoptosis. (A) Prostate CSCs were grown in CSC medium and treated with embelin (0-6 μM) for 7 days to obtain primary spheroids. At the end of incubation period, spheroids were collected, reseeded and treated with embelin for another week to obtain secondary spheroids. Cell viability in spheroids was measured by trypan blue assay at the end of 7 and 14 days. […] (B) Prostate CSCs were seeded in soft agar and treated with embelin (0-6 μM) for 21 days. […] (C and D) Activation of caspase-3 and induction of apoptosis is shown.
(§3) (A) Prostate CSCs were grown in CSC medium and treated with rottlerin (0-2 μM) for 7 days to obtain primary spheroids. At the end of incubation period, spheroids were collected, reseeded and treated with rottlerin for another week to obtain secondary spheroids. Cell viability in spheroids was measured by trypan blue assay at the end of 7 and 14 days. […] (B) Prostate CSCs were seeded in soft agar and treated with rottlerin (0-2 μM) for 21 days. […] (C and D) Activation of caspase-3 and induction of apoptosis.

For assay [4], the system named is Notch reporter activity in prostate CSCs. The experiment in a line: Notch-responsive dual luciferase reporter. In kind it is cell-based, human. The settings on record: rottlerin 0-2 μM, 24 h, dual luciferase assay. As to the method: (§4) FIG. 17 graphs showing the regulation of Shh, Notch and TGFβ pathways by rottlerin. […] The expression of Patched-1, Patched-2, SMO, Gli1 and Gli2 was measured by qRT-PCR. […] Data were normalized with GAPDH. (D) Prostate CSCs were treated with rottlerin (0-1 μM) for 24 h. The expression of Notch1, Notch3 and JAG1 was measured by qRT-PCR. (E) TCF/LEF-1, Gli and Notch reporter activities. Prostate CSCs were transduced with a mixture of TCF/LEF1-, Gli-, or Notch-responsive firefly luciferase construct and Renilla luciferase construct (40:1) along with lipofectamine. After transduction, medium was changed and CSCs were treated with rottlerin (0-2 μM) for 24 h. […] (F) Immunofluorescence analysis of Gli1 and Gli2 expression in prostate CSCs. Green=Gli1 or Gli2; red=nucleus.
On the technique in general: A reporter such as luciferase makes a cellular process visible.

For assay [5], the system named is Prostate CSCs. As to the kind of experiment: prostate CSCs xenografted sub-cutaneously in NSG mice. The settings on record: NOD/SCID/IL2R gamma mice, 20 mg/kg, 6 weeks. It is filed as in vivo. On the procedure:
as §1

Assay [6] deals with Prostate CSCs. As to the kind of experiment: apoptosis. In kind it is cell-based, human. The settings on record: embelin 0-6 μM 48 h; rottlerin 0-2 μM 24 h. On the procedure:
as §2, §3

The test system of assay [7] is Gli1 and Gli2 in prostate CSCs. As to the kind of experiment: immunofluorescence analysis of Gli1 and Gli2 expression. It is filed as cell-based, human. The settings on record: measured by IFC. As to the method:
as §4

Assay [8] relates to Pancreatic CSCs. The settings on record: NOD/SCID/IL2R gamma mice, 20 mg/kg, 6 weeks. On the procedure: as §1
A further assay deals with pancreatic cancer. The settings on record: KrasG12D mice.
For assay [9], the system named is human pancreatic cancer cells.

Read-outs that look alike come from different tables or passages of the source.

For `O=C(O[C@@H]1Cc2c(O)cc(O)cc2O[C@@H]1c1cc(O)c(O)c(O)c1)c1cc(O)c(O)c(O)c1` [EGCG, epigallocatechin gallate], the TCF/LEF activity result in assay [1] (EGCG 0-60, 48 h) is “inhibited TCF/LEF activity”. In addition, in assay [1] (EGCG 40 μM with or without quercetin 20 μM, 48 hrs, luciferase), the TCF/LEF transcriptional activity entry is listed as “inhibited”.
`CC(=O)c1c(O)c(C)c(O)c(Cc2c(O)c3c(c(C(=O)/C=C/c4ccccc4)c2O)OC(C)(C)C=C3)c1O` [rottlerin]: the “tumor growth (weights of tumors vs control mice)” value in the assay with Pancreatic CSCs [2] and with Prostate CSCs [5] was “inhibit tumor growth” throughout. Further, the “colony formation in soft agar” value with Prostate CSCs [3] is “inhibited”. Besides, in [4], the “Notch responsive reporter activity” value is “inhibited the TCF/LEF1, Gli1 and Notch responsive reporter activities in a dose-dependent manner”. Also, the apoptosis result in the assay with Prostate CSCs [6] is reported as “induces”. Also, the “nuclear expression of constitutively active Gli1” value in assay [7] is “inhibited the nuclear expression”. The “nuclear expression of constitutively active Gli2” value in assay [7] was “inhibited the nuclear expression”.
Regarding `C[S+]([O-])CCCCN=C=S` (stereo not drawn) [sulforaphane], in the assay on Pancreatic CSCs [8], the “tumor growth (weights of tumors vs control mice)” value was “inhibit tumor growth”. Further, the pancreatic cancer progression entry in the assay on pancreatic cancer was “inhibits the growth of pancreatic cancer progression”. For the same compound, the “growth of human pancreatic cancer cells” value in assay [9] is “inhibits the growth”.
